The values below are quoted from earlier work in patent publication US12553008B2, “Extracting and refining plant cuticular waxes from aqueous dispersion using temperature and pH adjustment” (JENA TRADING APS, priority 2019, dated 2026).

One may read the pKa as the pH at which an ionisable group is half protonated.

Where two headings read alike, the source gives them in different places.

Test in series [1]: not given
The source holds these as a separate data set.

On to `CCCCCCCCCCCC(=O)O` [Lauric (C12 saturated), Lauric], for which the pKa is listed as 5.3. The “Solubility of free fatty acids in water” value in series [1] (at 30° C.) was 63 mg/L at 30 °C. The “Solubility of free fatty acids in water” value in series [1] (at 45° C.) is 72 mg/L at 45 °C.
As to `CCCCCCCCCCCCCC(=O)O` [Myristic (C14 saturated), Myristic], the pKa is on record as 4.9. The “Solubility of free fatty acids in water” value in series [1] (at 30° C.) was 24 mg/L at 30 °C. Besides, the “Solubility of free fatty acids in water” value in series [1] (at 60° C.) was 33 mg/L at 60 °C.
Take `CCCCCCCC/C=C\CCCCCCCC(=O)O` [Oleic (C18 mono-unsaturated), oleic acid]: the “Solubility of free fatty acids in water” value in series [1] (in words, no temperature printed) is listed as “Insoluble”; in series [1] (in words, no temperature printed, listed as oleic) it was “very low”.
On to `CCCCCCCCCCCCCCCC(=O)O` [Palmitic (C16 saturated), Palmitic], for which the pKa is 4.75.
Take `CCCCCCCCCCCCCCCCCC(=O)O` [Stearic (C18 saturated), Stearic]: the pKa was 4.8-4.9.
